The series can be described thus: Thermal crystal transformation test (hot stage, XRPD). The class given is physicochemical. The following applies: for Results (crystal form after thermal crystal transformation, XRPD): heating rate 10° C./min, holding time 1 min. Here is the method:
The present invention further provides a method for preparing the polymorph of any one of Form A to Form Z, including: • (1) suspension method: adding a crude free base of the compound of formula I (which can be prepared according to the methods described in WO 2019240938 A1) to a selected single or binary solvent until a suspension is formed and stirring same under suspension at room temperature to 50° C. for a period of time (e.g., 1 h to 3 days, or 2 h to 24 h, or 2 h to 12 h, or 3 h to 5 h), and then centrifuging and separating the suspension, followed by drying, to obtain the product; or • (2) Anti-solvent crystallization method: adding a crude free base of the compound of formula I to an appropriate amount of a good solvent until completely dissolved, taking an amount of the solution and dropwise adding same to a poor solvent or dropwise adding a poor solvent to the solution, and stirring same to precipitate a solid, followed by separation and drying to obtain the product; or • (3) cooling method: adding a crude free base of the compound of formula I to an appropriate amount of a solvent at 50-80° C. until the solid is just completely dissolved, and transferring the solution to an environment at room temperature for cooling, followed by leaving to stand or crystallization under stirring, separation and drying to obtain the product; or • (4) vapor diffusion method: dropwise adding an appropriate amount of a good solvent to an amount of a crude free base of the compound of formula I at room temperature to completely dissolve the sample or formulating same as a saturated solution of a good solvent; and separately taking an amount of the solution, and leaving the clear solution to stand in a poor solvent atmosphere at room temperature until a solid precipitates out, followed by separation, to obtain the product; or • (5) thermal crystal transformation method: placing an amount of the sample on a glass plate on a hot stage, heating same to the target temperature at a rate (e.g., 5-20° C./min, or 10-15° C./min), and maintaining the temperature for a period of time (e.g., 0.5-5 min, or 1-3 min, or 1-2 min), followed by naturally cooling down to room temperature to obtain a solid.
The different crystal forms, as raw materials, were heated to the target temperature on a hot table and held for 1 min, and cooled to room temperature to obtain solids for the XRPD test.

Structures are written as SMILES.

For the molecule `[2H]C([2H])([2H])[C@@H]1CCc2c(Oc3c(Cl)cc(-n4nc(C#N)c(=O)[nH]c4=O)cc3Cl)n[nH]c(=O)c21` [Form J, (R)-2-(3,5-dichloro-4-((7-(methyl-d3)-1-oxo-2,5,6,7-tetrahydro-1H-cyclopenta [d]pyridazin-4-yl)oxy)phenyl)-3,5-dioxo-2,3,4,5-tetrahydro-1,2,4-triazine-6-carbonitrile], the “Results (crystal form after thermal crystal transformation, XRPD)” value (“Results” for short) (target temperature 160° C.) is listed as “Form C”.
With `[2H]C([2H])([2H])[C@@H]1CCc2c(Oc3c(Cl)cc(-n4nc(C#N)c(=O)[nH]c4=O)cc3Cl)n[nH]c(=O)c21` [Form F, (R)-2-(3,5-dichloro-4-((7-(methyl-d3)-1-oxo-2,5,6,7-tetrahydro-1H-cyclopenta [d]pyridazin-4-yl)oxy)phenyl)-3,5-dioxo-2,3,4,5-tetrahydro-1,2,4-triazine-6-carbonitrile], the “crystal form after thermal crystal transformation” value (heated to 230° C. or more) is “Form C”. The “Results” value (target temperature 230° C.) is “Form C”.
On to `[2H]C([2H])([2H])[C@@H]1CCc2c(Oc3c(Cl)cc(-n4nc(C#N)c(=O)[nH]c4=O)cc3Cl)n[nH]c(=O)c21` [Form N, (R)-2-(3,5-dichloro-4-((7-(methyl-d3)-1-oxo-2,5,6,7-tetrahydro-1H-cyclopenta [d]pyridazin-4-yl)oxy)phenyl)-3,5-dioxo-2,3,4,5-tetrahydro-1,2,4-triazine-6-carbonitrile], for which the “crystal form after thermal crystal transformation” value (heated to 235° C. or more) is “Form C with a slightly less crystallinity”. For the same molecule, where the note is “target temperature 235° C.”, the “Results” value is “Form C”.
With `[2H]C([2H])([2H])[C@@H]1CCc2c(Oc3c(Cl)cc(-n4nc(C#N)c(=O)[nH]c4=O)cc3Cl)n[nH]c(=O)c21` [Form L, (R)-2-(3,5-dichloro-4-((7-(methyl-d3)-1-oxo-2,5,6,7-tetrahydro-1H-cyclopenta [d]pyridazin-4-yl)oxy)phenyl)-3,5-dioxo-2,3,4,5-tetrahydro-1,2,4-triazine-6-carbonitrile], the “crystal form after thermal crystal transformation” value by setting is: (heated to 100° C.) “Form A”; (heated to 190° C.) “Form C”. Also, the “Results” value runs as follows: (target temperature 100° C.) “Form A”; (target temperature 190° C.) “Form C”.
`[2H]C([2H])([2H])[C@@H]1CCc2c(Oc3c(Cl)cc(-n4nc(C#N)c(=O)[nH]c4=O)cc3Cl)n[nH]c(=O)c21` [Form M, (R)-2-(3,5-dichloro-4-((7-(methyl-d3)-1-oxo-2,5,6,7-tetrahydro-1H-cyclopenta [d]pyridazin-4-yl)oxy)phenyl)-3,5-dioxo-2,3,4,5-tetrahydro-1,2,4-triazine-6-carbonitrile]: under “target temperature 260° C.”, the “Results” value is recorded as “Form C”.
Consider `[2H]C([2H])([2H])[C@@H]1CCc2c(Oc3c(Cl)cc(-n4nc(C#N)c(=O)[nH]c4=O)cc3Cl)n[nH]c(=O)c21` [Form V, (R)-2-(3,5-dichloro-4-((7-(methyl-d3)-1-oxo-2,5,6,7-tetrahydro-1H-cyclopenta [d]pyridazin-4-yl)oxy)phenyl)-3,5-dioxo-2,3,4,5-tetrahydro-1,2,4-triazine-6-carbonitrile], for which the “crystal form after thermal crystal transformation” value (heated to 150° C.) is reported as “Form V”.
Take `[2H]C([2H])([2H])[C@@H]1CCc2c(Oc3c(Cl)cc(-n4nc(C#N)c(=O)[nH]c4=O)cc3Cl)n[nH]c(=O)c21` [Form K, (R)-2-(3,5-dichloro-4-((7-(methyl-d3)-1-oxo-2,5,6,7-tetrahydro-1H-cyclopenta [d]pyridazin-4-yl)oxy)phenyl)-3,5-dioxo-2,3,4,5-tetrahydro-1,2,4-triazine-6-carbonitrile]: the “crystal form after thermal crystal transformation” value (heated to 260° C. or more) is “Form C”.
Regarding `[2H]C([2H])([2H])[C@@H]1CCc2c(Oc3c(Cl)cc(-n4nc(C#N)c(=O)[nH]c4=O)cc3Cl)n[nH]c(=O)c21` [Form E, (R)-2-(3,5-dichloro-4-((7-(methyl-d3)-1-oxo-2,5,6,7-tetrahydro-1H-cyclopenta [d]pyridazin-4-yl)oxy)phenyl)-3,5-dioxo-2,3,4,5-tetrahydro-1,2,4-triazine-6-carbonitrile], the “crystal form after thermal crystal transformation” value (by desolvation) is recorded as “Form C”. Moreover, the “Results” value (target temperature 180° C.) was “Form C”.
Take `[2H]C([2H])([2H])[C@@H]1CCc2c(Oc3c(Cl)cc(-n4nc(C#N)c(=O)[nH]c4=O)cc3Cl)n[nH]c(=O)c21` [Form R, (R)-2-(3,5-dichloro-4-((7-(methyl-d3)-1-oxo-2,5,6,7-tetrahydro-1H-cyclopenta [d]pyridazin-4-yl)oxy)phenyl)-3,5-dioxo-2,3,4,5-tetrahydro-1,2,4-triazine-6-carbonitrile]: the “Results” value (target temperature 200° C.) was “Form C”.
For `[2H]C([2H])([2H])[C@@H]1CCc2c(Oc3c(Cl)cc(-n4nc(C#N)c(=O)[nH]c4=O)cc3Cl)n[nH]c(=O)c21` [Form A, (R)-2-(3,5-dichloro-4-((7-(methyl-d3)-1-oxo-2,5,6,7-tetrahydro-1H-cyclopenta [d]pyridazin-4-yl)oxy)phenyl)-3,5-dioxo-2,3,4,5-tetrahydro-1,2,4-triazine-6-carbonitrile], the “crystal form after thermal crystal transformation” value runs as follows: (heated to 150° C.) “Form A”; (heated to 300° C.) “Form C”. Besides, the “Results” value (target temperature 150° C.) is recorded as “Form A” and the “Results” value (target temperature 300° C.) is “Form C”.

The record behind these values is patent US20250179050A1, “POLYMORPH AS THYROID HORMONE RECEPTOR AGONISTS AND USE THEREOF” (XIZANG HAISCO PHARMACEUTICAL CO., LTD., priority 2022, published 2025).
